Reference: patent US20260262643A1, “HERBICIDAL BENZOXAZINES” (FMC CORPORATION, priority 2022, published 2026)

Key:
ryegrass, Italian [1] = test: Test C preemergence; format: in vivo, Lolium multiflorum
In short: (§1)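 Test material, in non-phytotoxic solvent with surfactant, was sprayed on the soil directly after seeding (preemergence) or on young plants of 2–10 cm with one to two leaves (postemergence). Greenhouse, 10 days; 0–100 visual control scale.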

kochia [2] = test: Test C preemergence; format: in vivo, Bassia scoparia
In short: as §1

oat, wild [3] = test: Test C postemergence; format: in vivo, Avena fatua; conditions: 10 days, 0 to 100 scale (0 no effect, 100 complete control)
In short: as §1

pigweed, palmer [4] = test: Test C postemergence; format: in vivo, Amaranthus palmeri; conditions: 10 days, 0 to 100 scale (0 no effect, 100 complete control)
In short: as §1

foxtail, giant [5] = test: Test C postemergence; format: in vivo, Setaria faberi; conditions: 10 days, 0 to 100 scale (0 no effect, 100 complete control)
In short: as §1

blackgrass [6] = test: Test C postemergence; format: in vivo, Alopecurus myosuroides; conditions: 10 days, 0 to 100 scale (0 no effect, 100 complete control)
In short: as §1

oat, wild [7] = test: Test C preemergence; format: in vivo, Avena fatua
In short: as §1

rice = test: Test D flooded paddy test; format: in vivo, Oryza sativa; conditions: 250 g ai/ha, applied to paddy water, visual rating after 13 to 14 days, scale 0 to 100 (0 no effect, 100 complete control)
In short: (§2)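 Seedlings reached the 2-leaf stage, then pots were flooded to 3 cm over the soil surface. Compound was applied into the water, depth was maintained, and plants stayed in the greenhouse 13 to 14 days before visual scoring (0–100) relative to controls.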

ragweed [8] = test: Test C preemergence; format: in vivo, Ambrosia artemisiifolia
In short: as §1

soybean [9] = test: Test C preemergence; format: in vivo, Glycine max
In short: as §1

corn [10] = test: Test C postemergence; format: in vivo, Zea mays; conditions: 10 days, 0 to 100 scale (0 no effect, 100 complete control)
In short: as §1

galium = test: Test C postemergence; format: in vivo, Galium aparine; conditions: 10 days, 0 to 100 scale (0 no effect, 100 complete control)
In short: as §1

ragweed [11] = test: Test C postemergence; format: in vivo, Ambrosia artemisiifolia; conditions: 10 days, 0 to 100 scale (0 no effect, 100 complete control)
In short: as §1

barnyardgrass [12] = test: Test D flooded paddy test; format: in vivo, Echinochloa crus-galli; conditions: 250 g ai/ha, applied to paddy water, visual rating after 13 to 14 days, scale 0 to 100 (0 no effect, 100 complete control)
In short: as §2

barnyardgrass [13] = test: Test C preemergence; format: in vivo, Echinochloa crusgalli
In short: as §1

barnyardgrass [14] = test: Test C postemergence; format: in vivo, Echinochloa crusgalli; conditions: 10 days, 0 to 100 scale (0 no effect, 100 complete control)
In short: as §1

corn [15] = test: Test C preemergence; format: in vivo, Zea mays; conditions: Preemergence, 125 g ai/ha; 0 to 100 scale, 0 no effect, 100 complete control
In short: as §1

sedge, umbrella = test: Test D flooded paddy test; format: in vivo, Cyperus difformis; conditions: 250 g ai/ha, applied to paddy water, visual rating after 13 to 14 days, scale 0 to 100 (0 no effect, 100 complete control)
In short: as §2

kochia [16] = test: Test C postemergence; format: in vivo, Bassia scoparia; conditions: 10 days, 0 to 100 scale (0 no effect, 100 complete control)
In short: as §1

wheat [17] = test: Test C postemergence; format: in vivo, Triticum aestivum; conditions: 10 days, 0 to 100 scale (0 no effect, 100 complete control)
In short: as §1

foxtail, giant [18] = test: Test C preemergence; format: in vivo, Setaria faberi
In short: as §1

ducksalad = test: Test D flooded paddy test; format: in vivo, Heteranthera limosa; conditions: 250 g ai/ha, applied to paddy water, visual rating after 13 to 14 days, scale 0 to 100 (0 no effect, 100 complete control)
In short: as §2

pigweed, palmer [19] = test: Test C preemergence; format: in vivo, Amaranthus palmeri
In short: as §1

horseweed = test: Test C postemergence; format: in vivo, Erigeron canadensis; conditions: 10 days, 0 to 100 scale (0 no effect, 100 complete control)
In short: as §1

ryegrass, Italian [20] = test: Test C postemergence; format: in vivo, Lolium multiflorum; conditions: 10 days, 0 to 100 scale (0 no effect, 100 complete control)
In short: as §1

soybean [21] = test: Test C postemergence; format: in vivo, Glycine max; conditions: 10 days, 0 to 100 scale (0 no effect, 100 complete control)
In short: as §1

blackgrass [22] = test: Test C preemergence; format: in vivo, Alopecurus myosuroides
In short: as §1

wheat [23] = test: Test C preemergence; format: in vivo, Triticum aestivum
In short: as §1

[24] = 500 g ai/ha, preemergence, 0 to 100 scale (0 no effect, 100 complete control)
[25] = Preemergence, 125 g ai/ha, 0 to 100 scale, 0 no effect, 100 complete control

## COc1ccc(-n2cnc(C3CC3)n2)cc1C(=O)N1C[C@H](C)Oc2c(Cl)cccc21 [Compound 324]
ryegrass, Italian [1]; [24]
  Ryegrass, Italian plant response rating: 100
ryegrass, Italian [1]; [25]
  Plant response rating, Ryegrass, Italian: 80
Kochia [2]; [24]
  Kochia plant response rating: 90
Kochia [2]; [25]
  Plant response rating, Kochia: 90
oat, wild [3]; 500 g ai/ha, postemergence
  Plant response rating, Oat, Wild: 70
oat, wild [3]; Postemergence, 125 g ai/ha
  Plant response rating, Oat, Wild: 10
pigweed, palmer [4]; 500 g ai/ha, postemergence
  Plant response rating, Pigweed, Palmer: 100
pigweed, palmer [4]; Postemergence, 125 g ai/ha
  Plant response rating, Pigweed, Palmer: 90
foxtail, giant [5]; 500 g ai/ha, postemergence
  Plant response rating, Foxtail, Giant: 90
foxtail, giant [5]; Postemergence, 125 g ai/ha
  Plant response rating, Foxtail, Giant: 80
Blackgrass [6]; 500 g ai/ha, postemergence
  Plant response rating, Blackgrass: 90
Blackgrass [6]; Postemergence, 125 g ai/ha
  Plant response rating, Blackgrass: 90
oat, wild [7]; [24]
  Oat, Wild plant response rating: 90
oat, wild [7]; [25]
  Plant response rating, Oat, Wild: 0
rice
  Plant response rating, Rice (Flood): 10
Ragweed [8]; [24]
  Ragweed plant response rating: 90
Ragweed [8]; [25]
  Plant response rating, Ragweed: 50
Soybean [9]; [24]
  Soybean plant response rating: 90
Soybean [9]; [25]
  Plant response rating, Soybean: 100
Corn [10]; 500 g ai/ha, postemergence
  Plant response rating, Corn: 90
Corn [10]; Postemergence, 125 g ai/ha
  Plant response rating, Corn: 70
galium; 500 g ai/ha, postemergence
  Plant response rating, Galium: 100
galium; Postemergence, 125 g ai/ha
  Plant response rating, Galium: 100
Ragweed [11]; 500 g ai/ha, postemergence
  Plant response rating, Ragweed: 70
Ragweed [11]; Postemergence, 125 g ai/ha
  Plant response rating, Ragweed: 60
Barnyardgrass [12]
  Plant response rating, Barnyardgrass (Flood): 40
Barnyardgrass [13]; [24]
  Barnyardgrass plant response rating: 100
Barnyardgrass [13]; [25]
  Plant response rating, Barnyardgrass: 90
Barnyardgrass [14]; 500 g ai/ha, postemergence
  Plant response rating, Barnyardgrass: 80
Barnyardgrass [14]; Postemergence, 125 g ai/ha
  Plant response rating, Barnyardgrass: 50
Corn [15]
  Plant response rating, Corn: 0
sedge, umbrella
  Plant response rating, Sedge, Umbrella (Flood): 98
Kochia [16]; 500 g ai/ha, postemergence
  Plant response rating, Kochia: 100
Kochia [16]; Postemergence, 125 g ai/ha
  Plant response rating, Kochia: 90
Wheat [17]; 500 g ai/ha, postemergence
  Plant response rating, Wheat: 30
Wheat [17]; Postemergence, 125 g ai/ha
  Plant response rating, Wheat: 30
foxtail, giant [18]; [24]
  Foxtail, Giant plant response rating: 100
foxtail, giant [18]; [25]
  Plant response rating, Foxtail, Giant: 90
ducksalad
  Plant response rating, Ducksalad (Flood): 80
pigweed, palmer [19]; [24]
  Pigweed, Palmer plant response rating: 100
pigweed, palmer [19]; [25]
  Plant response rating, Pigweed, Palmer: 100
horseweed; 500 g ai/ha, postemergence
  Plant response rating, Horseweed: 80
horseweed; Postemergence, 125 g ai/ha
  Plant response rating, Horseweed: 60
ryegrass, Italian [20]; 500 g ai/ha, postemergence
  Plant response rating, Ryegrass, Italian: 50
ryegrass, Italian [20]; Postemergence, 125 g ai/ha
  Plant response rating, Ryegrass, Italian: 40
Soybean [21]; 500 g ai/ha, postemergence
  Plant response rating, Soybean: 100
Soybean [21]; Postemergence, 125 g ai/ha
  Plant response rating, Soybean: 100
Blackgrass [22]; [24]
  Blackgrass plant response rating: 90
Blackgrass [22]; [25]
  Plant response rating, Blackgrass: 70
Wheat [23]; [24]
  Wheat plant response rating: 90
Wheat [23]; [25]
  Plant response rating, Wheat: 10
